Results reported in ChEMBL document CHEMBL1121684, “Selective and potent beta 2-adrenoceptor agents within the tetrahydroisoquinoline class: effect of methyl substitution at the benzylic carbon of the 1-(3,4,5-trimethoxybenzyl) group of trimetoquinol” (J Med Chem, 1981).

Columns and labels:
[1] = biological target: Beta-2 adrenergic receptor (Cavia porcellus) (UniProt Q8K4Z4)
Description: Beta-2 adrenergic receptor activity in guinea pig tracheal smooth muscle

[2] = tested on: Beta-1 adrenergic receptor (Cavia porcellus); settings: Cardiac atrium

Chain of Beta-2 adrenergic receptor (Cavia porcellus) (Q8K4Z4 whole entry, looked up): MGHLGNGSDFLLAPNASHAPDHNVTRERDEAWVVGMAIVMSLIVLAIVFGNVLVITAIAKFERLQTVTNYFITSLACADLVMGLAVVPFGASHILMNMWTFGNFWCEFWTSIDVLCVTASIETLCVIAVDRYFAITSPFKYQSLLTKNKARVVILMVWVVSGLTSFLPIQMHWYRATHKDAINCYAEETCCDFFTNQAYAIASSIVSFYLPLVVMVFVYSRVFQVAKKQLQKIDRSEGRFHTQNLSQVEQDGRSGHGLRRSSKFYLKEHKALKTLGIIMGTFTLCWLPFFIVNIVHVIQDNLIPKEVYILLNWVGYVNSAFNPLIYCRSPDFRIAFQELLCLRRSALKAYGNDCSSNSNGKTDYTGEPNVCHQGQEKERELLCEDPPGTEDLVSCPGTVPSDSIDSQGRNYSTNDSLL

pD2 [1]	pD2 [2]	Compound
4.47		COc1cc(C(C)(C)[C@@H]2NCCc3cc(O)c(O)cc32)cc(OC)c1OC
8.39	7.35	COc1cc([C@@H](C)[C@@H]2NCCc3cc(O)c(O)cc32)cc(OC)c1OC
7.15	6.67	COc1cc([C@H](C)[C@@H]2NCCc3cc(O)c(O)cc32)cc(OC)c1OC
8.15		COc1cc(C[C@@H]2NCCc3cc(O)c(O)cc32)cc(OC)c1OC
